Laboratory results reported in US20230303570A1, “KINASE INHIBITORS AND USES THEREOF” (ABM Therapeutics Corporation, priority 2020, published 2023).

Assays:
Assay type in all cases: biochemical
HPK1 (MAP4K1) = HPK1 (MAP4K1) (Homo sapiens, UniProt Q92918); experiment: HPK1 (MAP4K1) kinase Lantha screen assay
Procedure, shortened: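 Recombinant MAP4K1 preincubated 10 min with compound (6-point dilution, duplicates) in 50 mM HEPES pH 7.5, 10 mM MgCl2, then reacted with Fluorescein-PKC substrate and ATP for 90 min at room temperature. Antibody detection solution stopped reaction; after 60 min, TR-FRET read at ex 340 nm, em 520/495 nm.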

RET = RET (Homo sapiens, UniProt P07949); experiment: RET kinase mobility shift assay
Chain of RET (P07949 29-1114, species assumed): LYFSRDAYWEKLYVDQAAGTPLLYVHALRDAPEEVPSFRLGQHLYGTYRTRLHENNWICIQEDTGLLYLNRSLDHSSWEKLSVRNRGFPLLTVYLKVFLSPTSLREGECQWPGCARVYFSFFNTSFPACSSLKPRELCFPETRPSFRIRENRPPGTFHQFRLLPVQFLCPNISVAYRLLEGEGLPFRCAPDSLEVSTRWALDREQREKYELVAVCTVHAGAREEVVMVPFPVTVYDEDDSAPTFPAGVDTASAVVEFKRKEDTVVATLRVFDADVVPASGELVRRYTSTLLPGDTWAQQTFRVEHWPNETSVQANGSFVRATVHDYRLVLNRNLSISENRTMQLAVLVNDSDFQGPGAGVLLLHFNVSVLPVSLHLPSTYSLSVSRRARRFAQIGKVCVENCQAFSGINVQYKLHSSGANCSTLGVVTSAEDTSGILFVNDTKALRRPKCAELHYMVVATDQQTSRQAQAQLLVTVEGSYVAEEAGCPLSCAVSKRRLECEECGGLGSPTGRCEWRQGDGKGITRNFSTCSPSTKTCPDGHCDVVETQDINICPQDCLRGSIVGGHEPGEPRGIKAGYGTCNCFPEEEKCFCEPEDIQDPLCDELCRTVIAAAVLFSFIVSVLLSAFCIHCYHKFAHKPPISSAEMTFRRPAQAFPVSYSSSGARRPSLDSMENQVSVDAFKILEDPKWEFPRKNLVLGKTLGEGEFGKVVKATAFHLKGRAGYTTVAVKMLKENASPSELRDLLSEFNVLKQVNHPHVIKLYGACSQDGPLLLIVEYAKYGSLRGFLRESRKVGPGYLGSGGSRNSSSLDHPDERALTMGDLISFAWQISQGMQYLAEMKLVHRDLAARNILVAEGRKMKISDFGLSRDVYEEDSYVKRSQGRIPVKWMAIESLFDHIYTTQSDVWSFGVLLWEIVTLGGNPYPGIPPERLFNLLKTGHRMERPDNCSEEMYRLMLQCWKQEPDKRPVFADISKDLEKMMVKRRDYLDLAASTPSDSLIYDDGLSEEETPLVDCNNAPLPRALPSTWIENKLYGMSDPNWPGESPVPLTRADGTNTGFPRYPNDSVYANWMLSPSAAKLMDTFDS
Method: The effect of the compounds on the activity of cKit, RET and AXL kinases were assessed by Mobility shift assay. • 1. 1× kinase base buffer and stop buffer for testing kinases were prepared • 1-1) 1× Kinase base buffer (50 mM HEPES, pH 7.5, 0.01% Triton X-100) • 1-2) Stop buffer (100 mM HEPES, pH 7.5, 0.015% Brij-35, 0.2% Coating Reagent #3, 50 mM EDTA) • 2. Compound and assay plate preparation: the compound was diluted to 50× of the final desired highest inhibitor concentration in reaction by 100% DMSO. 100 μl of this compound dilution was transferred to a well in a 96-well plate. For example, if the highest desired concentration was 5 μM, then 250 μM of compound DMSO solution was prepared in this step. For all compounds, the compound was serially diluted by transferring 10 μl to 70 μl of 100 DMSO in the next well and so forth for a total of 5 concentrations. 100 μl of 100% DMSO was added to two empty wells for no compound control and no enzyme control in the same 96-well plate. The plate was labeled as source plate. The intermediate plate was prepared by transferring 10 μl of compound from source plate to a new 96-well plate as the intermediate plate, adding 90 μl of 1× kinase buffer to each well of the intermediate plate, mixing the compounds in intermediate plate for 10 min on shaker. 5 μl of each well from the 96-well intermediate plate were transferred to a 384-well plate in duplicates. For example, A1 of the 96-well plate was transferred to A1 and A2 of the 384-well plate. A2 of the 96-well plate was transferred to A3 and A4 of the 384-well plate, and so on. • 4. Kinase reaction: The assay plate already contained 5 μl of compound in 10% DMSO. A 2.5× enzyme solution was prepared by adding kinases (cKit, RET, or AXL) and DTT in 1× kinase base buffer. 2.5× enzyme solution was transferred to the assay plate (by adding 10 μl of 2.5× enzyme solution to each well of the 384-well assay plate). The plate was incubated at room temperature for 10 min. 2.5× peptide solution was prepared by adding FAM-labeled peptide, ATP, MgCl2 in the 1× kinase base buffer. 2.5× peptide solution was added to the assay plate by adding 10 μl of 2.5× peptide solution to each well of the 384-well assay plate. The plate was incubated at 28° C. for the specified period of time. 25 μl of stop buffer was added to stop reaction. Data was collected on Caliper.

c-Kit = c-Kit (Homo sapiens, UniProt P10721); experiment: cKit kinase mobility shift assay
Chain of c-Kit (P10721 26-976): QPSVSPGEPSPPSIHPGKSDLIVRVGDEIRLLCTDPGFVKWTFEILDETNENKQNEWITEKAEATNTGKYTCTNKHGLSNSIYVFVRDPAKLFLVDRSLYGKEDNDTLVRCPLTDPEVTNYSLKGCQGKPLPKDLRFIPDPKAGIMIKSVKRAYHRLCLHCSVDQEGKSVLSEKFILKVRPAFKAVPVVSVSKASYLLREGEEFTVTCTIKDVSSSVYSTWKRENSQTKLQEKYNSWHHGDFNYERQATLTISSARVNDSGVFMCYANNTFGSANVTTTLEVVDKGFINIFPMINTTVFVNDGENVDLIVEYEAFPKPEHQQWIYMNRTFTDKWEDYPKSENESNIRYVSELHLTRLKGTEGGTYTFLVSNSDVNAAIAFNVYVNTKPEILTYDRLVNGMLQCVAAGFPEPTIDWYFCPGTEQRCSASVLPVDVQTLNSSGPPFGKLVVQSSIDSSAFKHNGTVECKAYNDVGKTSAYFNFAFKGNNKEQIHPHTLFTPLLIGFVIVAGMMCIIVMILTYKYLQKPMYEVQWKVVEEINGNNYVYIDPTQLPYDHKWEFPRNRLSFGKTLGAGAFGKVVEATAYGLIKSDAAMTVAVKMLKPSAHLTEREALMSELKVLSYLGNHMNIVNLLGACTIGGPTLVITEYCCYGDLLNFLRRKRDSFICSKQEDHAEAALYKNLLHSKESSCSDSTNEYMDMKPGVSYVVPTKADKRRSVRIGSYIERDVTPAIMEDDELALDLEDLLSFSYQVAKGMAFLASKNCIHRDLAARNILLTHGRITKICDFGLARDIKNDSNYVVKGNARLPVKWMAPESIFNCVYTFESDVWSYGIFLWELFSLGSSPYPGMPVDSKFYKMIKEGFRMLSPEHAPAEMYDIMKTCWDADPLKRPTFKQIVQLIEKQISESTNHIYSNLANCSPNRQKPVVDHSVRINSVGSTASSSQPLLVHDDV
Procedure, shortened: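 Human kinase with DTT in 50 mM HEPES pH 7.5 and 0.01% Triton X-100 was preincubated with compound for 10 min at room temperature, using a 5-point dilution in duplicate. FAM-labeled peptide, ATP and MgCl2 were then added and the reaction run at 28° C. Reactions were stopped with EDTA buffer and peptide conversion was read by Caliper mobility shift.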

PAK1 = PAK1 (Homo sapiens, UniProt Q13153); experiment: In vitro kinase assay, PAK1 (Caliper EZ Reader conversion); parameters: purchased Carna Biosciences
Chain of PAK1 (Q13153 whole entry): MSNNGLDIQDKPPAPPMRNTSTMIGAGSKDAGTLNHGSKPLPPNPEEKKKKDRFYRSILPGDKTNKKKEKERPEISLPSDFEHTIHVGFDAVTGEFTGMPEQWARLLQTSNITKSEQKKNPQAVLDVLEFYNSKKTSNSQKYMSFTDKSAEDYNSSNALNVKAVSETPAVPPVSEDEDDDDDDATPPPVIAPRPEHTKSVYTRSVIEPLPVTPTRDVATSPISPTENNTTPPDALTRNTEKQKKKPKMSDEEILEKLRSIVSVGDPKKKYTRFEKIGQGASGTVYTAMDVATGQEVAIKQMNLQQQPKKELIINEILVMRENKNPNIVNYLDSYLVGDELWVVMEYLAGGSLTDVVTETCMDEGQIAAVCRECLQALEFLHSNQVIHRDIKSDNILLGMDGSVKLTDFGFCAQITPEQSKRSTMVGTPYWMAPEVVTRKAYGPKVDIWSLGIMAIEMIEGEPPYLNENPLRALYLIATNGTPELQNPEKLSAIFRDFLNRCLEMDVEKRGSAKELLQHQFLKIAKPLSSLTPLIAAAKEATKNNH
Procedure, shortened: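 Human PAK1 was preincubated with compound (6 concentrations, 4-fold dilutions) for 10 min at room temperature, then reacted with substrate mix for 30 and 60 min. Substrate conversion was read by Caliper mobility shift. IC50 was fitted by variable-slope log(inhibitor)–response, normalised to FRAX597 and buffer controls.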

Chain of HPK1 (MAP4K1) (Q92918 whole entry, species assumed): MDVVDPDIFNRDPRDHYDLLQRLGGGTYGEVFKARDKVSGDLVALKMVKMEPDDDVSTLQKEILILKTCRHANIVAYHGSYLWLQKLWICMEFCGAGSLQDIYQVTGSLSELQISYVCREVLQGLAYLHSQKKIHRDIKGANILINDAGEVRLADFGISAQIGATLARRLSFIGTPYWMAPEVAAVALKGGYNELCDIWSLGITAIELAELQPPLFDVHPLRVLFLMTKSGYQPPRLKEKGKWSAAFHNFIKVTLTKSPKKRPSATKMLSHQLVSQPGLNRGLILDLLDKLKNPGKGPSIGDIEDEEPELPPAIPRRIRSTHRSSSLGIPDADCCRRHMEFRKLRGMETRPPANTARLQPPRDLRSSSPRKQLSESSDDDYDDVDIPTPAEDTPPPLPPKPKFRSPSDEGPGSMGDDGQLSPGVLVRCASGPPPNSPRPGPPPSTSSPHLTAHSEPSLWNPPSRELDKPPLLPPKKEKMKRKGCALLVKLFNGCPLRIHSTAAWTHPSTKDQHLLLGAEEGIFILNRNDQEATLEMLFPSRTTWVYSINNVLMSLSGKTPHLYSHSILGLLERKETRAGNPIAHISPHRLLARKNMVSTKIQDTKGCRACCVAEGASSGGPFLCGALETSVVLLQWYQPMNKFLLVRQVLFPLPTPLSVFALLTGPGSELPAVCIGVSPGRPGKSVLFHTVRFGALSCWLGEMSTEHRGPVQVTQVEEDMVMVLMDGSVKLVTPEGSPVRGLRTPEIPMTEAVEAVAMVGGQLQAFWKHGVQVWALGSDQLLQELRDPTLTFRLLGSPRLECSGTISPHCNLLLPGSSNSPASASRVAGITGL

| Structure (SMILES) | IC50 (HPK1 (MAP4K1)) | IC50 (RET) | IC50 (c-Kit) | IC50 (PAK1) |
| --- | --- | --- | --- | --- |
| CNc1ncc2c(n1)N1C(=NC[C@H]1C)C(c1cc(NC(=O)c3cc(C(F)(F)F)ccn3)ccc1C)=C2 [Compound 129, (R)—N-(4-methyl-3-(9-methyl-2-(methylamino)-8,9-dihydroimidazo[1′,2′:1,6]pyrido[2,3-d]pyrimidin-6-yl)phenyl)-4-(trifluoromethyl)picolinamide] | 100 to 10000 nM | 100 to 10000 nM | – | – |
| Cc1ccc(NC(=O)c2cc(C(F)(F)F)ccn2)cc1C1=Cc2cnc(NCCF)nc2N2CCN=C12 [Compound 111, N-(3-(2-((2-fluoroethyl)amino)-8,9-dihydroimidazo[1′,2′:1,6]pyrido[2,3-d]pyrimidin-6-yl)-4-methylphenyl)-4-(trifluoromethyl)picolinamide] | 100 to 10000 nM | < 100 nM | – | – |
| CNc1ncc2c(n1)N1CCN=C1C(c1cc(NC(=O)c3cc(C(F)(F)F)ccn3)ccc1C)=C2C [Compound 120, N-(4-methyl-3-(5-methyl-2-(methylamino)-8,9-dihydroimidazo[1′,2′:1,6]pyrido[2,3-d]pyrimidin-6-yl)phenyl)-4-(trifluoromethyl)picolinamide] | 100 to 10000 nM | 100 to 10000 nM | – | – |
| CNc1ncc2c(n1)N1CCN=C1C(c1cc(NC(=O)c3cc(C(F)(F)F)ccn3)ccc1C)=C2 [Compound 107, N-(4-methyl-3-(2-(methylamino)-8,9-dihydroimidazo[1′,2′:1,6]pyrido[2,3-d]pyrimidin-6-yl)phenyl)-4-(trifluoromethyl)picolinamide] | 100 to 10000 nM | < 100 nM | < 100 nM | > 10000 nM |
| CNc1ncc2c(n1)N1C(=NC[C@@H]1C)C(c1cc(NC(=O)c3cc(C(F)(F)F)ccn3)ccc1C)=C2 [Compound 130, (S)—N-(4-methyl-3-(9-methyl-2-(methylamino)-8,9-dihydroimidazo[1′,2′:1,6]pyrido[2,3-d]pyrimidin-6-yl)phenyl)-4-(trifluoromethyl)picolinamide] | < 100 nM | < 100 nM | – | – |
| CNc1ncc2c(n1)N1CCN=C1C(c1cc(NC(=O)c3cc(C(F)(F)F)ccn3)ccc1Cl)=C2 [Compound 136, N-(4-chloro-3-(2-(methylamino)-8,9-dihydroimidazo[1′,2′:1,6]pyrido[2,3-d]pyrimidin-6-yl)phenyl)-4-(trifluoromethyl)picolinamide] | 100 to 10000 nM | < 100 nM | < 100 nM | – |
| CNc1ncc2c(n1)N1CCN=C1C(c1cc(NC(=O)c3cc(C(F)(F)F)ccn3)ccc1F)=C2C [Compound 121, N-(4-fluoro-3-(5-methyl-2-(methylamino)-8,9-dihydroimidazo[1′,2′:1,6]pyrido[2,3-d]pyrimidin-6-yl)phenyl)-4-(trifluoromethyl)picolinamide] | 100 to 10000 nM | 100 to 10000 nM | – | – |
| CNc1ncc2c(n1)N1CCN=C1C(c1cc(NC(=O)c3cc(C(F)(F)F)ccn3)ccc1F)=C2 [Compound 135, N-(4-fluoro-3-(2-(methylamino)-8,9-dihydroimidazo[1′,2′:1,6]pyrido[2,3-d]pyrimidin-6-yl)phenyl)-4-(trifluoromethyl)picolinamide] | 100 to 10000 nM | < 100 nM | – | – |
| Cc1ccc(Nc2ncc3c(n2)N2CCN=C2C(c2cc(NC(=O)c4cc(C(F)(F)F)ccn4)ccc2C)=C3)cn1 [Compound 208, N-(4-methyl-3-(2-((6-methylpyridin-3-yl)amino)-8,9-dihydroimidazo[1′,2′:1,6]pyrido[2,3-d]pyrimidin-6-yl)phenyl)-4-(trifluoromethyl)picolinamide] | < 100 nM | < 100 nM | – | – |
